Results on seven molecules are retold here after PubChem BioAssay (NCI).

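Step 1: Grow cells in 96-well plates. Step 2: Expose to compound for 48 hours at 5 concentrations. Step 3: Interpolate endpoints linearly; if unreached, use highest concentration. TGI: concentration producing complete growth inhibition.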 Bounds are passed on as bounds.

Test systems include PC-3 prostate; BT-549 breast; KM12 colon; HL-60(TB) leukemia; NCI/ADR-RES ovarian; MCF7 breast; MDA-MB-231 breast; HS 578T breast; ACHN renal; T-47D breast; MDA-MB-435; DU-145 prostate; MDA-N; SK-MEL-2 melanoma; TK-10 renal; M14 melanoma; SNB-78 CNS; KM20L2 colon; DLD-1 colon; M19-MEL melanoma.
Assay in all cases: DTP human tumour cell line panel, 48 h

The TGI is the concentration giving total growth inhibition. High values mean less potent growth arrest, low ones more potent growth arrest. As to `CCN1c2ccccc2NC(=S)c2c1n[nH]c2-c1ccccc1`, the total growth inhibition concentration (TGI) in the experiment on PC-3 prostate was 84.6 µM; in the experiment with BT-549 breast, above 100 µM; in the experiment with KM12 colon, 91.1 µM; with HL-60(TB) leukemia it was 29.9 µM; in the experiment on NCI/ADR-RES ovarian it was 60.9 µM; with MCF7 breast it was 74.9 µM. Further, the TGI in the experiment on MDA-MB-231 breast is 61.8 µM; with HS 578T breast it was above 100 µM; with ACHN renal, above 100 µM; in the experiment on T-47D breast, 74.5 µM; in the experiment on MDA-MB-435 it was 52.5 µM; with DU-145 prostate it was above 100 µM. Further, the TGI in the experiment on MDA-N is 32.6 µM; in the experiment on SK-MEL-2 melanoma it was 60.1 µM; with TK-10 renal it was above 100 µM; in the experiment on M14 melanoma, above 100 µM.
For `CCCCCCSc1nc(N)nc2nc[nH]c12`, the TGI is above 100 µM with SNB-78 CNS; above 100 µM with KM12 colon; 60.4 µM in the experiment on HL-60(TB) leukemia; above 100 µM in the experiment on NCI/ADR-RES ovarian; above 100 µM with MCF7 breast; above 100 µM in the experiment with KM20L2 colon. Further, the TGI in the experiment with SK-MEL-2 melanoma, with DLD-1 colon and in the experiment with M19-MEL melanoma was above 100 µM each time.
`C/C(=N\Nc1nc2cc(Cl)ccc2s1)c1ccccn1`: the TGI in the experiment on PC-3 prostate is above 35.2 µM; with BT-549 breast, above 61.3 µM; in the experiment on KM12 colon, above 84.8 µM; in the experiment on HL-60(TB) leukemia, 0.586 µM; in the experiment with MDA-MB-231 breast, 7.41 µM; with HS 578T breast it was above 100 µM. Moreover, the TGI was 13.4 µM with ACHN renal; 43.6 µM with T-47D breast; above 42 µM in the experiment on MDA-MB-435; above 23.3 µM with DU-145 prostate; above 100 µM in the experiment on MDA-N; above 100 µM in the experiment on TK-10 renal.
`COC1/C=C/C=C(/C)Cc2cc(O)c(Cl)c(c2)N(C)C(=O)CC(OC(=O)C(C)C)C2(C)OC2C(C)C2CC1(O)NC(=O)O2` (configuration not stated): the concentration for total growth inhibition (TGI) was above 100 µM in the experiment on PC-3 prostate; 49.4 µM in the experiment with BT-549 breast; above 100 µM with HL-60(TB) leukemia; above 100 µM in the experiment on MCF7 breast; above 42.3 µM in the experiment on MDA-MB-231 breast; above 100 µM in the experiment with HS 578T breast. In addition, the TGI was above 100 µM in the experiment with ACHN renal; above 100 µM in the experiment with T-47D breast; above 100 µM in the experiment on MDA-MB-435; below 0.01 µM with MDA-N; above 43.6 µM in the experiment with SK-MEL-2 melanoma; above 65.2 µM with TK-10 renal.
In the case of `CCOC(=O)c1nc2ccc(OC)cc2c2c1Cc1ccccc1-2`, the TGI with SNB-78 CNS, with KM12 colon, in the experiment with ACHN renal, in the experiment on KM20L2 colon, in the experiment on SK-MEL-2 melanoma and with DLD-1 colon was above 100 µM each time. The TGI in the experiment on TK-10 renal, in the experiment on M19-MEL melanoma and with M14 melanoma was above 100 µM throughout.
With `CC(=O)C(=O)NC1/C=C(C)\C=C/C(O)C/C=C(C)\C=C/C(O)CC2OC(=O)C1(C)C(=O)C2C` (configuration not stated), the TGI with SNB-78 CNS, in the experiment with KM12 colon, with NCI/ADR-RES ovarian, in the experiment on MCF7 breast, in the experiment on KM20L2 colon and in the experiment on SK-MEL-2 melanoma was above 100 µM in each case. Moreover, the TGI in the experiment with DLD-1 colon and in the experiment on M19-MEL melanoma was above 100 µM throughout.
With `O=C1CC(/C=C/c2ccco2)=C(O)C1=O`, the TGI in the experiment with PC-3 prostate is 25.4 µM; with BT-549 breast, 23.6 µM; in the experiment on KM12 colon, 27.6 µM; with HL-60(TB) leukemia, 57.1 µM; with NCI/ADR-RES ovarian, above 100 µM; in the experiment with MCF7 breast, 21.4 µM. For the same molecule, the TGI stood at 35.2 µM with MDA-MB-231 breast; 87.9 µM with HS 578T breast; 34.3 µM with ACHN renal; 35.8 µM with T-47D breast; 35.3 µM in the experiment on MDA-MB-435; 32.5 µM in the experiment on DU-145 prostate. The TGI in the experiment with MDA-N amounted to 29.7 µM; in the experiment on SK-MEL-2 melanoma, 35.1 µM; in the experiment with TK-10 renal it was 44.2 µM; in the experiment with M14 melanoma, 29.2 µM.
